Data from ChEMBL document CHEMBL3217623, “Tacrine-mefenamic acid hybrids for inhibition of acetylcholinesterase” (Medchemcomm, 2011).
Activity calls are given as the source filed them. No cut-off for these calls is given here.

Columns and labels:
Acetylcholinesterase [1] = biological target: T1, Acetylcholinesterase (Torpedo californica, UniProt P04058); assay: Inhibition of Torpedo californica […] AChE using acetylthiocholine/DTNB as substrate assessed as ROS-induced enzyme inactivation preincubated for 10 mins followed by substrate addition measured every 30 secs for 20 mins in presence of horseradish peroxidase and H2O2; design: species or system Tetronarce californica
Acetylcholinesterase [2] = biological target: T1, Acetylcholinesterase; assay: Inhibition of Torpedo californica […] AChE using acetylthiocholine/DTNB as substrate preincubated for 10 mins followed by substrate addition measured every 30 secs for 30 mins by Ellmans method; design: species or system Tetronarce californica
[3] = biological target: Acetylcholinesterase (Torpedo californica) (UniProt P04058); assay: Non-competitive inhibition of Torpedo californica […] AChE using acetylthiocholine as substrate at 0.2 to 5 uM measured for 2 mins by Lineweaver-Burk plot analysis; settings: Tetronarce californica
Sequence of Acetylcholinesterase (Torpedo californica) (P04058 22-564 limits assumed): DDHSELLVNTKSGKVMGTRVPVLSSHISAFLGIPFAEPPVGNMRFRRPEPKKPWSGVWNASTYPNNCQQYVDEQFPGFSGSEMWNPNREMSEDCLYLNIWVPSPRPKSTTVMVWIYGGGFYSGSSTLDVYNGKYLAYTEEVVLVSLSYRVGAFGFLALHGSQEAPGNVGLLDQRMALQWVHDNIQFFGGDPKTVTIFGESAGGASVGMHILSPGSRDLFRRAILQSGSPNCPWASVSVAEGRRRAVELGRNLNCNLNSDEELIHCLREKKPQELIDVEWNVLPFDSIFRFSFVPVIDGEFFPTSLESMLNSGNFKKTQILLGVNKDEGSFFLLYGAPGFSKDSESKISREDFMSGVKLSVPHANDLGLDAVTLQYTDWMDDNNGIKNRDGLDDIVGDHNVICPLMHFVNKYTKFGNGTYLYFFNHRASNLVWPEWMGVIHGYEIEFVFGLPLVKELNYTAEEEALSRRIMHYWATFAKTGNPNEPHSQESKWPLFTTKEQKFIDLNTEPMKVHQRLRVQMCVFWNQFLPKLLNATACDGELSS

T1 sequence (P04058 whole entry): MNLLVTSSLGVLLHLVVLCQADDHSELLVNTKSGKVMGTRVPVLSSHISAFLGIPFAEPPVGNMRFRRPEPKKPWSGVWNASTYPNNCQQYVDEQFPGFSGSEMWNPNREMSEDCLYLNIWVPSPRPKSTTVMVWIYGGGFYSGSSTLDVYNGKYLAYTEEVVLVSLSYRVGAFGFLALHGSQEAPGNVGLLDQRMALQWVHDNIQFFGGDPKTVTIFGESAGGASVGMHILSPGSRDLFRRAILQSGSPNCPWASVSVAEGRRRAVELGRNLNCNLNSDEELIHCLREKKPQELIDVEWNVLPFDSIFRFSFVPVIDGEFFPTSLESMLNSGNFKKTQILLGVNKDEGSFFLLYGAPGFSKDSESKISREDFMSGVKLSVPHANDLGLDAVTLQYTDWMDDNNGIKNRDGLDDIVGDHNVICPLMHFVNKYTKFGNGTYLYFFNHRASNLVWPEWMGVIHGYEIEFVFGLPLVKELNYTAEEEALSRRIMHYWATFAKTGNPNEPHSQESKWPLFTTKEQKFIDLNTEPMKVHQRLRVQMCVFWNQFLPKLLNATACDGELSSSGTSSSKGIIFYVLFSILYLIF

SMILES	IC50 (Acetylcholinesterase [1]) [nM]	IC50 (Acetylcholinesterase [2]) [µM]	inhibition [3]
Cc1cccc(Nc2ccccc2C(=O)NCCCCCCCCNc2c3c(nc4ccccc24)CCCC3)c1C	0.045	0.0755	
Cc1cccc(Nc2ccccc2C(=O)NCCCCCC(=O)NCCCNc2c3c(nc4ccccc24)CCCC3)c1C	20.2	0.811	
Cc1cccc(Nc2ccccc2C(=O)NCCCC(=O)NCCCCCCCCNc2c3c(nc4cc(Cl)ccc24)CCCC3)c1C	6.59	0.017	
Clc1ccc2c(Cl)c3c(nc2c1)CCCC3		> 50	
Cc1cccc(Nc2ccccc2C(=O)NCC(=O)NCCCCNc2c3c(nc4ccccc24)CCCC3)c1C	53.6	0.262	
Cc1cccc(Nc2ccccc2C(=O)NCCC(=O)NCCCCNc2c3c(nc4cc(Cl)ccc24)CCCC3)c1C	33	2.47	
CN(C)C(=O)Oc1ccc[n+](C)c1 [PYRIDOSTIGMINE]		0.082	
Cc1cccc(Nc2ccccc2C(=O)NCCCCCCCCCCNc2c3c(nc4ccccc24)CCCC3)c1C	0.908	0.385	Active
Cc1cccc(Nc2ccccc2C(=O)NCCCCCCCCCNc2c3c(nc4ccccc24)CCCC3)c1C	15.1	0.00154	
Cc1cccc(Nc2ccccc2C(=O)NCCCC(=O)NCCCCCCNc2c3c(nc4cc(Cl)ccc24)CCCC3)c1C	15.6	0.0417	
Clc1c2c(nc3ccccc13)CCCC2	83.9	> 25	
Cc1cccc(Nc2ccccc2C(=O)NCCCCCC(=O)NCCCCNc2c3c(nc4ccccc24)CCCC3)c1C	34	1.86	
Cc1cccc(Nc2ccccc2C(=O)NCC(=O)NCCCCCCNc2c3c(nc4ccccc24)CCCC3)c1C	54.8	0.0183	
Cc1cccc(Nc2ccccc2C(=O)NCCCCCC(=O)NCCCCCCCNc2c3c(nc4cc(Cl)ccc24)CCCC3)c1C	13.4	0.0111	
Cc1cccc(Nc2ccccc2C(=O)NCCCCCCCNc2c3c(nc4cc(Cl)ccc24)CCCC3)c1C	29.8	1.38	
Cc1cccc(Nc2ccccc2C(=O)NCCCCCCCCCCCCNc2c3c(nc4ccccc24)CCCC3)c1C	6.94	0.0509	
Cc1cccc(Nc2ccccc2C(=O)NCC(=O)NCCCCNc2c3c(nc4cc(Cl)ccc24)CCCC3)c1C	89.4	0.156	
Cc1cccc(Nc2ccccc2C(=O)NCCCCCC(=O)NCCCCCCCCNc2c3c(nc4cc(Cl)ccc24)CCCC3)c1C	8.67	0.0801	
Cc1cccc(Nc2ccccc2C(=O)NCCCCCC(=O)NCCCCCCCCNc2c3c(nc4ccccc24)CCCC3)c1C	6.26	0.0187	

SMILES	IC50 (Acetylcholinesterase [1]) [nM]	IC50 (Acetylcholinesterase [2]) [µM]	inhibition [3]
Cc1cccc(Nc2ccccc2C(=O)NCC(=O)NCCCNc2c3c(nc4cc(Cl)ccc24)CCCC3)c1C	3.1	0.0281	
Cc1cccc(Nc2ccccc2C(=O)NCCC(=O)NCCCCCCCNc2c3c(nc4ccccc24)CCCC3)c1C	1.02	0.0139	
Cc1cccc(Nc2ccccc2C(=O)NCCCC(=O)NCCCCCCNc2c3c(nc4ccccc24)CCCC3)c1C	29.9	0.195	
Cc1cccc(Nc2ccccc2C(=O)NCC(=O)NCCCCCCCCNc2c3c(nc4ccccc24)CCCC3)c1C	17.2	0.0033	
CN(C)C(=O)Oc1cccc([N+](C)(C)C)c1 [NEOSTIGMINE]		0.0046	
Cc1cccc(Nc2ccccc2C(=O)NCCCCCCCNc2c3c(nc4ccccc24)CCCC3)c1C	25.2	0.00139	
Cc1cccc(Nc2ccccc2C(=O)NCCCCCCCCNc2c3c(nc4cc(Cl)ccc24)CCCC3)c1C	1.49	0.000495	
Cc1cccc(Nc2ccccc2C(=O)NCC(=O)NCCCCCCCNc2c3c(nc4cc(Cl)ccc24)CCCC3)c1C	0.009	0.000418	
Cc1cccc(Nc2ccccc2C(=O)NCC(=O)NCCCCCCCCNc2c3c(nc4cc(Cl)ccc24)CCCC3)c1C	18.1	0.0398	
Cc1cccc(Nc2ccccc2C(=O)NCCC(=O)NCCCCCCNc2c3c(nc4cc(Cl)ccc24)CCCC3)c1C	2.96	0.00114	
Cc1cccc(Nc2ccccc2C(=O)NCCCCCCNc2c3c(nc4ccccc24)CCCC3)c1C	0.129	0.00224	
Cc1cccc(Nc2ccccc2C(=O)NCC(=O)NCCCCCCCNc2c3c(nc4ccccc24)CCCC3)c1C	15.3	0.00555	
Cc1cccc(Nc2ccccc2C(=O)NCCCCCCCCCCCCNc2c3c(nc4cc(Cl)ccc24)CCCC3)c1C	16.2	2.36	
Cc1cccc(Nc2ccccc2C(=O)NCCCCCC(=O)NCCCCNc2c3c(nc4cc(Cl)ccc24)CCCC3)c1C	0.299	0.0374	
Cc1cccc(Nc2ccccc2C(=O)NCCCC(=O)NCCCNc2c3c(nc4cc(Cl)ccc24)CCCC3)c1C	1.03	0.00713	
Cc1cccc(Nc2ccccc2C(=O)NCCC(=O)NCCCCCCNc2c3c(nc4ccccc24)CCCC3)c1C	40.2	0.985	
Cc1cccc(Nc2ccccc2C(=O)NCCC(=O)NCCCNc2c3c(nc4ccccc24)CCCC3)c1C	7.92	3.8	
Cc1cccc(Nc2ccccc2C(=O)NCCC(=O)NCCCCCCCCNc2c3c(nc4ccccc24)CCCC3)c1C	4.07	0.00858	
Cc1cccc(Nc2ccccc2C(=O)NCCCCCCCCCCNc2c3c(nc4cc(Cl)ccc24)CCCC3)c1C	1.85	0.000776	

SMILES	IC50 (Acetylcholinesterase [1]) [nM]	IC50 (Acetylcholinesterase [2]) [µM]	inhibition [3]
Cc1cccc(Nc2ccccc2C(=O)NCCCC(=O)NCCCCNc2c3c(nc4cc(Cl)ccc24)CCCC3)c1C	12.4	0.0136	
Cc1cccc(Nc2ccccc2C(=O)NCC(=O)NCCCCCCNc2c3c(nc4cc(Cl)ccc24)CCCC3)c1C	3.46	0.00765	
Cc1cccc(Nc2ccccc2C(=O)NCCCC(=O)NCCCCNc2c3c(nc4ccccc24)CCCC3)c1C	14.6	0.0897	
Cc1cccc(Nc2ccccc2C(=O)NCCC(=O)NCCCCNc2c3c(nc4ccccc24)CCCC3)c1C	2.43	0.426	
Cc1cccc(Nc2ccccc2C(=O)NCCCC(=O)NCCCCCCCCNc2c3c(nc4ccccc24)CCCC3)c1C	14.6	0.0174	
Cc1cccc(Nc2ccccc2C(=O)NCCCCCC(=O)NCCCNc2c3c(nc4cc(Cl)ccc24)CCCC3)c1C	7.85	0.00165	
Cc1cccc(Nc2ccccc2C(=O)NCCC(=O)NCCCCCCCNc2c3c(nc4cc(Cl)ccc24)CCCC3)c1C	10	0.00667	
Cc1cccc(Nc2ccccc2C(=O)NCCCC(=O)NCCCCCCCNc2c3c(nc4ccccc24)CCCC3)c1C	44.6	0.00809	
Cc1cccc(Nc2ccccc2C(=O)NCCC(=O)NCCCCCCCCNc2c3c(nc4cc(Cl)ccc24)CCCC3)c1C	4.97	0.0183	
Cc1cccc(Nc2ccccc2C(=O)O)c1C [MEFENAMIC ACID]	6120	> 1250	
Cc1cccc(Nc2ccccc2C(=O)NCCCCCCNc2c3c(nc4cc(Cl)ccc24)CCCC3)c1C	1.02	7.23	
Cc1cccc(Nc2ccccc2C(=O)NCC(=O)NCCCNc2c3c(nc4ccccc24)CCCC3)c1C	47.5	0.0873	
Cc1cccc(Nc2ccccc2C(=O)NCCCC(=O)NCCCNc2c3c(nc4ccccc24)CCCC3)c1C	23	3.73	
Cc1cccc(Nc2ccccc2C(=O)NCCCC(=O)NCCCCCCCNc2c3c(nc4cc(Cl)ccc24)CCCC3)c1C	6.55	0.00791	
Cc1cccc(Nc2ccccc2C(=O)NCCCCCC(=O)NCCCCCCNc2c3c(nc4cc(Cl)ccc24)CCCC3)c1C	7.39	0.00294	
Cc1cccc(Nc2ccccc2C(=O)NCCCCCCCCCNc2c3c(nc4cc(Cl)ccc24)CCCC3)c1C	6.72	0.00694	
Cc1cccc(Nc2ccccc2C(=O)NCCC(=O)NCCCNc2c3c(nc4cc(Cl)ccc24)CCCC3)c1C	21.3	0.0203	
Cc1cccc(Nc2ccccc2C(=O)NCCCCCC(=O)NCCCCCCNc2c3c(nc4ccccc24)CCCC3)c1C	34	1.44	
Cc1cccc(Nc2ccccc2C(=O)NCCCCCC(=O)NCCCCCCCNc2c3c(nc4ccccc24)CCCC3)c1C	3.66	0.0036	
